From ChEMBL document CHEMBL1126239, “Quinazoline antifolate thymidylate synthase inhibitors: difluoro-substituted benzene ring analogues” (J Med Chem, 1992)

What was measured:
L1210 [1] = experiment: The compound was tested in vitro for the inhibition of L1210 cell growth in the presence of thymidine; type: functional, Mus musculus; set-up: concentration or dose not given beside the values
L1210 [2] = experiment: The compound was tested in vitro for the inhibition of L1210 cell growth in culture; type: functional, cell-based; settings: Mus musculus
Thymidylate synthase = Thymidylate synthase (Mus musculus, UniProt P07607); experiment: Inhibition of thymidylate synthase from L1210 cells; type: cell-based
Thymidylate synthase, sequence (P07607 whole entry): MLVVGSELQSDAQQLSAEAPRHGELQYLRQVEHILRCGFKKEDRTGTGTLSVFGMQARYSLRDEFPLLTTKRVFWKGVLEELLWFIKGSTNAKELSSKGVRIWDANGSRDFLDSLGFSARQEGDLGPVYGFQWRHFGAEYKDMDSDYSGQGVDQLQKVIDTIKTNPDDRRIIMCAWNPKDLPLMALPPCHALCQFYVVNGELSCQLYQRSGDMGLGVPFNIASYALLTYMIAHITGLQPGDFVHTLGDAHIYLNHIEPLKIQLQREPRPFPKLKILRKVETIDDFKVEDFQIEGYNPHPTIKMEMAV

Row | Structure (SMILES) | Control (L1210 [1]) | IC50 (L1210 [2]) | IC50 (Thymidylate synthase)
1 | C#CCN(Cc1ccc2nc(C)nc(O)c2c1)c1ccc(C(=O)N[C@@H](CCC(=O)O)C(=O)O)c(F)c1F | 94% | 280 nM | 1700 nM
2 | Cc1nc(O)c2cc(CN(C)c3cc(F)c(C(=O)N[C@@H](CCC(=O)O)C(=O)O)cc3F)ccc2n1 | 94% | 75 nM | 1100 nM
3 | C#CCN(Cc1ccc2nc(C)nc(O)c2c1)c1cc(F)c(C(=O)N[C@@H](CCC(=O)O)C(=O)O)cc1F | 95% | 27 nM | 600 nM
4 | Cc1nc(O)c2cc(CN(C)c3ccc(C(=O)N[C@@H](CCC(=O)O)C(=O)O)c(F)c3F)ccc2n1 |  | 140 nM | 1000 nM
5 | C#CCN(Cc1ccc2nc(C)nc(O)c2c1)c1cc(F)c(C(=O)N[C@@H](CCC(=O)O)C(=O)O)c(F)c1 | 93% | 62 nM | 80 nM
6 | Cc1nc(O)c2cc(CN(C)c3cc(F)c(C(=O)N[C@@H](CCC(=O)O)C(=O)O)c(F)c3)ccc2n1 | 90% | 50 nM | 950 nM
